Key:
Format in all cases: binding
Parameters in all cases: KINOMEscan: ABL1(F317L)-phosphorylated / KINOMEscan: ABL1(H396P)-nonphosphorylated / KINOMEscan: ABL1(H396P)-phosphorylated / KINOMEscan: ABL1(M351T)-phosphorylated / KINOMEscan: ABL1(T315I)-phosphorylated / KINOMEscan: ABL1-nonphosphorylated / KINOMEscan: ABL1-phosphorylated / KINOMEscan: ACVR2A / KINOMEscan: ACVR2B / KINOMEscan: ADCK3 / KINOMEscan: ADCK4 / KINOMEscan: AKT1 / KINOMEscan: AKT3 / KINOMEscan: ALK / KINOMEscan: ARK5 / KINOMEscan: AURKA / KINOMEscan: AURKC / KINOMEscan: BIKE / KINOMEscan: BMPR1A / KINOMEscan: BMPR1B / KINOMEscan: BMX / KINOMEscan: BRK / KINOMEscan: BRSK1 / KINOMEscan: BRSK2 / KINOMEscan: CAMK1 / KINOMEscan: CAMK1D / KINOMEscan: CAMK1G / KINOMEscan: CAMK2A / KINOMEscan: CAMK2B / KINOMEscan: AAK1 / KINOMEscan: CAMK2D / KINOMEscan: CAMK2G / KINOMEscan: ABL1(F317I)-nonphosphorylated / KINOMEscan: ABL1(F317I)-phosphorylated / KINOMEscan: ABL1(F317L)-nonphosphorylated: unit: % Ctrl
panel of 442 kinases [1] = molecular target: T1, panel of 442 kinases (Homo sapiens, UniProt Q9HAZ1); settings: Compound Concentration 10 µM
T1 construct: purchased KINOMEscan
Text: (§1) We assessed the selectivity of members of this scaffold using the KINOMEscan methodology across a near comprehensive panel of 442 kinases [[18,27]].

panel of 442 kinases [2] = molecular target: T2, panel of 442 kinases (Homo sapiens, UniProt P31749); settings: Compound Concentration 10 µM
T2 construct: purchased KINOMEscan
Text: as §1

panel of 442 kinases [3] = molecular target: T3, panel of 442 kinases (Homo sapiens, UniProt P49759); settings: Compound Concentration 10 µM
T3 construct: purchased KINOMEscan
Text: as §1

panel of 442 kinases [4] = molecular target: T4, panel of 442 kinases (Homo sapiens, UniProt Q96SB4); settings: kinase SRPK1; compound concentration 10 µM
T4 construct: purchased KINOMEscan
Text: as §1

T3 sequence (P49759 whole entry): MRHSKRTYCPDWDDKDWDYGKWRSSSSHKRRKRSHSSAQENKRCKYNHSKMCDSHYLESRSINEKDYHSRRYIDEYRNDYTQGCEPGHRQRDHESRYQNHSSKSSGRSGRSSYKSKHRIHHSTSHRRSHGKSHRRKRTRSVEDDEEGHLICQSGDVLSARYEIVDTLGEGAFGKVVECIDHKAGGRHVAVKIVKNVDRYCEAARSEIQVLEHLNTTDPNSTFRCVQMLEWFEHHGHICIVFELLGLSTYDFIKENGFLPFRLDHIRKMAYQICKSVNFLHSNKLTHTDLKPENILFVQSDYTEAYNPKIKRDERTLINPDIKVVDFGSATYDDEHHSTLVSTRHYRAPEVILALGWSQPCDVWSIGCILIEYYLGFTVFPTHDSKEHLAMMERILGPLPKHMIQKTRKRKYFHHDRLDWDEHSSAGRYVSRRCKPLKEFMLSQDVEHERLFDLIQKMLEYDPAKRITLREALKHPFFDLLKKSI
T2 sequence (P31749 whole entry): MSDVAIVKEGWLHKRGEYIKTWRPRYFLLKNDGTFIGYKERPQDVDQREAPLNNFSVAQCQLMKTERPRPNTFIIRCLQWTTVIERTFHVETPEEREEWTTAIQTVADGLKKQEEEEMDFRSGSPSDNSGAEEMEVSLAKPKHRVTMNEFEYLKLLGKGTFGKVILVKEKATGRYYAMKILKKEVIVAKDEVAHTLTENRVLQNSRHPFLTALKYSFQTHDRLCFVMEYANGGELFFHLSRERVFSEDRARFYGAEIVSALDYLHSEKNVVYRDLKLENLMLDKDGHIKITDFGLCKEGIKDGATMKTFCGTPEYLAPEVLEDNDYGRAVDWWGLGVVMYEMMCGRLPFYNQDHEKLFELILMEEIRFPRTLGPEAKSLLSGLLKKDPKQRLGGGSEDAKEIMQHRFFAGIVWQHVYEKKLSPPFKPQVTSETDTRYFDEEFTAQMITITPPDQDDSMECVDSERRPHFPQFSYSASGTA
T1 sequence (Q9HAZ1 whole entry): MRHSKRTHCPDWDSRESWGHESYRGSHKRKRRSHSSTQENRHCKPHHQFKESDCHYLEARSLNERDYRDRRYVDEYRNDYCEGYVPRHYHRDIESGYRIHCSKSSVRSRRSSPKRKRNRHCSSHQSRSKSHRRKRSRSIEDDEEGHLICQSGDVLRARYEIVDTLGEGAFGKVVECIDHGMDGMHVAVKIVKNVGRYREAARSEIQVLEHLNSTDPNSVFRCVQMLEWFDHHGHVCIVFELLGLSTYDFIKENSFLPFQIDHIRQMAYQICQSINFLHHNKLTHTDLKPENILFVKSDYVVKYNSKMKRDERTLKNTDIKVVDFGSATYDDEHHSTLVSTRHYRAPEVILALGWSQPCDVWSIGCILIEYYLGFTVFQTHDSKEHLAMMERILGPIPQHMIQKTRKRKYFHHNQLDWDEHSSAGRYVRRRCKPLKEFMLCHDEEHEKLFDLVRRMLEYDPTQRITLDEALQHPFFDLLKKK
T4 sequence (Q96SB4 whole entry): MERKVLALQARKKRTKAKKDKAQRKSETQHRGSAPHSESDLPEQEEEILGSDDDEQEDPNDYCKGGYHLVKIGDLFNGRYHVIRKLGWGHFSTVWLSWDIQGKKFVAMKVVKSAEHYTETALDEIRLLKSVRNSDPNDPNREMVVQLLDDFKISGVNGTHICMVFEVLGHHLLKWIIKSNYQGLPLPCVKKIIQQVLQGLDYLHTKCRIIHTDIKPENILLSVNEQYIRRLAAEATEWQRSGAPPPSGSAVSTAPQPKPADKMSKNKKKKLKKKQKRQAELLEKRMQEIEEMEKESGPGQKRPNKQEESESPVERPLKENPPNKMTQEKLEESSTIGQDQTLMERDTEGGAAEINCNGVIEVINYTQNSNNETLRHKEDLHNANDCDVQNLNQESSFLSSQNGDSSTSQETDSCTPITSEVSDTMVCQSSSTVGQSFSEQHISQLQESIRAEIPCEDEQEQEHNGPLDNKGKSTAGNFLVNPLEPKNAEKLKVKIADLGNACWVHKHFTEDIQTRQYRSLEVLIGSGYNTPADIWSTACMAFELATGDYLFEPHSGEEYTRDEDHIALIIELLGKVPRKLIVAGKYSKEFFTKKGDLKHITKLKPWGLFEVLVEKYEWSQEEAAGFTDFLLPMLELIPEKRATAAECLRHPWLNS

Row | SMILES | KINOMEscan: CLK4 (panel of 442 kinases [1]) | KINOMEscan: AKT1 (panel of 442 kinases [2]) | KINOMEscan: CLK1 (panel of 442 kinases [3]) | % Ctrl, SRPK1 (panel of 442 kinases [4]) [% Ctrl]
1 | CCOc1cc(C(=O)N2CCC(N3CCN(C)CC3)CC2)ccc1Nc1ncc2c(n1)N(C1CCCC1)c1ccccc1C(=O)N2C [Compound 26] | 100 | 100 | 100 | 100
2 | COc1cc(C(=O)N2CCC(N3CCN(C)CC3)CC2)ccc1Nc1ncc2c(n1)N1CCc3cccc(c31)C(=O)N2C [Compound 24] | 11 | 90 | 11 | 74
3 | COc1cc(C(=O)N2CCC(N3CCN(C)CC3)CC2)ccc1Nc1ncc2c(n1)N(C)c1ccccc1C(=O)N2C [15 (LRRK2-IN-1)] | 54 | 79 | 28 | 94
4 | COc1cc(C(=O)N2CCC(N3CCN(C)CC3)CC2)ccc1Nc1ncc2c(n1)N(C1CCCC1)c1ccccc1C(=O)N2C [Compound 25, 11-cyclopentyl-2-((2-methoxy-4-(4-(4-methylpiperazin-1-yl)piperidine-1-carbonyl)phenyl)amino)-5-methyl-5H-benzo[e]pyrimido[5,4-b][1,4]diazepin-6(11H)-one] | 100 | 100 | 100 | 90

From paper PMC3914206
